Source: patent US20110059962A1, “TRANSCRIPTION FACTOR MODULATING COMPOUNDS AND METHODS OF USE THEREOF” (priority 2009, published 2011)

Columns and labels:
[1] = system: P. aeruginosa cytotoxicity toward J774 cells; test: Inhibition of P. aeruginosa cytotoxicity toward J774 macrophage-like cells, whole cell LDH release assay (CytoTox 96); parameters: dose or concentration left out as unconfirmed; details: Pseudomonas aeruginosa, J774, read-out: % Cytotoxicity
LcrF (VirF) = LcrF (VirF) (Yersinia pestis, UniProt P28808); test: biochemical; type: binding, Y. pseudotuberculosis
Chain of LcrF (VirF) (P28808 whole entry, looked up): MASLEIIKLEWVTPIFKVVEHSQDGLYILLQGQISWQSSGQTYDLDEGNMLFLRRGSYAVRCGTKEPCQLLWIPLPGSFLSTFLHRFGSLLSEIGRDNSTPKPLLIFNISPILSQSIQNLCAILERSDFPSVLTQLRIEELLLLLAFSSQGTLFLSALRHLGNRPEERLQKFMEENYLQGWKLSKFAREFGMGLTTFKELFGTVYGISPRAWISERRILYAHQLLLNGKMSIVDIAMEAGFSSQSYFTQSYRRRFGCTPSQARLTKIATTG

[2] = system: Y. pseudotuberculosis cytotoxicity toward J774 cells; test: microbe, parasite or virus in culture; details: Yersinia pseudotuberculosis, J774, read-out: % Cytotoxicity
ExsA = biological target: T1, ExsA (Pseudomonas aeruginosa, UniProt P26993); test: Inhibition of ExsA-DNA binding, cell-free chemiluminescence assay; parameters: species or system P. aeruginosa
T1 construct: made in house
T1 sequence (P26993 1-278): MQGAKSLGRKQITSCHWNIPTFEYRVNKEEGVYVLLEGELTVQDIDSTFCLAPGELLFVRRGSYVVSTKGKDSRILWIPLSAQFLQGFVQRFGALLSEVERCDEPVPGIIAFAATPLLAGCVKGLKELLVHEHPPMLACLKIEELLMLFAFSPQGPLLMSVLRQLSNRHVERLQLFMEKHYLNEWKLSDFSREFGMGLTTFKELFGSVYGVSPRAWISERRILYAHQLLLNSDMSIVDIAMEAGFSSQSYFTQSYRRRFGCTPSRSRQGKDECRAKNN

SoxS = biological target: T2, SoxS (Escherichia coli, UniProt P0A9E2); test: Inhibition of SoxS-DNA binding, cell-free chemiluminescence assay; parameters: species or system E. coli
T2 construct: made in house; host or cells: E. coli
T2 sequence (P0A9E2 1-107): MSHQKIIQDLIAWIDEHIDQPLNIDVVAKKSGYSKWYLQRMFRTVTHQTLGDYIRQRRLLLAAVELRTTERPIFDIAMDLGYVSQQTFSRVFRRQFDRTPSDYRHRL

SMILES	activity [1] [%]	IC50 (LcrF (VirF)) [µM]	activity at 50 µg/mL [2] [%]	IC50 (ExsA) [µM]	IC50 (SoxS) [µM]
O=C(/C=C/c1ccc(F)cc1)Nc1ccc(-c2nc3ccc(Cl)cc3n2O)cc1 [AG]	75 to 99	> 50	75 to 99	–	–
O=C(O)Cc1cc([N+](=O)[O-])cc2c1nc(-c1ccc(NC(=O)/C=C/c3ccc(F)cc3)cc1)n2O [AH]	75 to 99	10 to 25	75 to 99	–	–
CC(=O)c1ccc(/C=C/C(=O)Nc2ccc(-c3nc4ccc(Cl)cc4n3O)cc2)cc1 [B]	75 to 99	> 50	75 to 99	10 to 25	–
CSc1ccc(/C=C/C(=O)Nc2ccc(-c3nc4ccc([N+](=O)[O-])cc4n3O)cc2)cc1 [C]	75 to 99	10 to 25	75 to 99	10 to 25	25 to 50
CC(=O)c1ccc(/C=C/C(=O)Nc2ccc(-c3nc4ccc(C#N)cc4n3O)cc2)cn1 [Compound A, (E)-3-(6-Acetyl-pyridin-3-yl)-N-[4-(6-cyano-1-hydroxy-1H-benzoimidazol-2-yl)-phenyl]-acrylamide]	< 75	25 to 50	< 75	> 50	–
O=C(O)Cc1cc([N+](=O)[O-])cc2c1nc(-c1ccc(NC(=O)c3ccc(-n4ccnc4)cc3)cc1)n2O [Compound AA, {1-Hydroxy-2-[4-(4-imidazol-1-yl-benzoylamino)-phenyl]-6-nitro-1H-benzoimidazol-4-yl}-acetic acid]	< 75	< 10	< 75	–	–
CC(=O)c1ccc2nc(-c3ccc(NC(=O)/C=C/c4ccc(F)cc4)cc3)n(O)c2c1 [Compound AB, (E)-N-[4-(6-Acetyl-1-hydroxy-1H-benzoimidazol-2-yl)-phenyl]-3-(4-fluoro-phenyl)-acrylamide]	75 to 99	25 to 50	75 to 99	–	–
O=C(/C=C/c1ccc(F)cc1)Nc1ccc(-c2nc3ccc(F)cc3n2O)cc1 [Compound AC, (E)-N-[4-(6-Fluoro-1-hydroxy-1H-benzoimidazol-2-yl)-phenyl]-3-(4-fluoro-phenyl)-acrylamide]	75 to 99	> 50	75 to 99	–	–
CS(=O)(=O)c1ccc2nc(-c3ccc(NC(=O)/C=C/c4ccc(F)cc4)cc3)n(O)c2c1 [Compound AD, (E)-3-(4-Fluoro-phenyl)-N-[4-(1-hydroxy-6-methanesulfonyl-1H-benzoimidazol-2-yl)-phenyl]-acrylamide]	75 to 99	> 50	75 to 99	–	–
O=C(/C=C/c1ccc(F)cc1)Nc1ccc(-c2nc3ccccc3n2O)cc1 [Compound AE, (E)-3-(4-Fluoro-phenyl)-N-[4-(1-hydroxy-1H-benzoimidazol-2-yl)-phenyl]-acrylamide]	75 to 99	> 50	75 to 99	–	–
O=C(/C=C/c1ccc(F)cc1)Nc1ccc(-c2nc3ccc(C(F)(F)F)cc3n2O)cc1 [Compound AF, (E)-3-(4-Fluoro-phenyl)-N-[4-(1-hydroxy-6-trifluoromethyl-1H-benzoimidazol-2-yl)-phenyl]-acrylamide]	75 to 99	> 50	75 to 99	–	–
O=C(/C=C/c1ccc(F)cc1)Nc1ccc(-c2nc3ccc(C(=O)O)cc3n2O)cc1 [Compound AI, 2-{4-[(E)-3-(4-Fluoro-phenyl)-acryloylamino]-phenyl}-3-hydroxy-3H-benzoimidazole-5-carboxylic acid]	75 to 99	25 to 50	< 75	–	–
CSc1ccc(/C=C/C(=O)Nc2ccc(-c3nc4ccc(C#N)cc4n3O)cc2)cc1 [Compound D, (E)-N-[4-(6-Cyano-1-hydroxy-1H-benzoimidazol-2-yl)-phenyl]-3-(4-methylsulfanyl-phenyl)-acrylamide]	75 to 99	25 to 50	75 to 99	< 10	10 to 25
CSc1ccc(/C=C/C(=O)Nc2ccc(-c3nc4ccc(C#N)cc4n3O)cc2)cn1 [Compound H, (E)-N-[4-(6-Cyano-1-hydroxy-1H-benzoimidazol-2-yl)-phenyl]-3-(6-methylsulfanyl-pyridin-3-yl)-acrylamide]	< 75	25 to 50	< 75	< 10	> 50
O=C(Nc1ccc(-c2nc3ccc([N+](=O)[O-])cc3n2O)cc1)c1ccc(-n2cccn2)nc1 [Compound I]	75 to 99	25 to 50	< 75	25 to 50	–
N#Cc1ccc2nc(-c3ccc(NC(=O)c4ccc(-n5cccn5)nc4)cc3)n(O)c2c1 [Compound M, N-[4-(6-Cyano-1-hydroxy-1H-benzoimidazol-2-yl)-phenyl]-6-pyrazol-1-yl-nicotinamide]	75 to 99	> 50	< 75	–	> 50

SMILES	activity [1] [%]	IC50 (LcrF (VirF)) [µM]	activity at 50 µg/mL [2] [%]	IC50 (ExsA) [µM]	IC50 (SoxS) [µM]
O=C(Nc1ccc(-c2nc3ccc([N+](=O)[O-])cc3n2O)cc1)c1cccc(N2CCOCC2)n1 [Compound N, 6-Morpholin-4-yl-pyridine-2-carboxylic acid [4-(1-hydroxy-6-nitro-1H-benzoimidazol-2-yl)-phenyl]-amide]	75 to 99	> 50	75 to 99	10 to 25	–
CC(=O)c1ccc(C(=O)Nc2ccc(-c3nc4c(CC(=O)O)cc([N+](=O)[O-])cc4n3O)cc2)cc1 [Compound R, {2-[4-(4-Acetyl-benzoylamino)-phenyl]-1-hydroxy-6-nitro-1H-benzoimidazol-4-yl}-acetic acid]	75 to 99	25 to 50	75 to 99	25 to 50	–
O=C(Nc1ccc(-c2nc3ccc([N+](=O)[O-])cc3n2O)cc1)c1ccnc(N2CCOCC2)c1 [Compound T]	75 to 99	> 50	< 75	> 50	–
CSc1ccc2nc(-c3ccc(NC(=O)/C=C/c4ccc(C(C)=O)cc4)cc3)n(O)c2c1 [Compound U, (E)-3-(4-Acetyl-phenyl)-N-[4-(1-hydroxy-6-methylsulfanyl-1H-benzoimidazol-2-yl)-phenyl]-acrylamide]	75 to 99	> 50	75 to 99	10 to 25	–
Cc1nc(C(F)(F)F)ccc1C(=O)Nc1ccc(-c2nc3ccc([N+](=O)[O-])cc3n2O)cc1 [Compound W, N-[4-(1-Hydroxy-6-nitro-1H-benzoimidazol-2-yl)-phenyl]-2-methyl-6-trifluoromethyl-nicotinamide]	75 to 99	> 50	75 to 99	> 50	–
O=C(Nc1ccc(-c2nc3ccc([N+](=O)[O-])cc3n2O)cc1)c1ccc(OCC(F)(F)F)nc1 [Compound X, N-[4-(1-Hydroxy-6-nitro-1H-benzoimidazol-2-yl)-phenyl]-6-(2,2,2-trifluoro-ethoxy)-nicotinamide]	75 to 99	25 to 50	75 to 99	25 to 50	–
O=C(Nc1ccc(-c2nc3ccc([N+](=O)[O-])cc3n2O)cc1)c1ccc(C(O)(O)C(F)(F)F)cc1 [E]	75 to 99	> 50	75 to 99	> 50	–
N#Cc1ccc2nc(-c3ccc(NC(=O)c4ccc(C(O)(O)C(F)(F)F)cc4)cc3)n(O)c2c1 [F]	75 to 99	> 50	75 to 99	10 to 25	–
O=C(/C=C/c1ccc(C(O)(O)C(F)(F)F)cc1)Nc1ccc(-c2nc3ccc([N+](=O)[O-])cc3n2O)cc1 [K]	75 to 99	> 50	75 to 99	> 50	–
N#Cc1ccc2nc(-c3ccc(NC(=O)/C=C/c4ccc(C(O)(O)C(F)(F)F)cc4)cc3)n(O)c2c1 [L]	75 to 99	> 50	75 to 99	10 to 25	–
CN1CCN(c2ccc(C(=O)Nc3ccc(-c4nc5ccc([N+](=O)[O-])cc5n4O)cc3)cn2)CC1 [O]	75 to 99	> 50	75 to 99	> 50	–
O=C(O)Cc1cc([N+](=O)[O-])cc2c1nc(-c1ccc(NC(=O)c3ccc(N4CCOCC4)nc3)cc1)n2O [Q]	75 to 99	25 to 50	75 to 99	25 to 50	–
O=C(Nc1ccc(-c2nc3ccc([N+](=O)[O-])cc3n2O)cc1)c1ccc(N2CCCCC2)nc1 [S]	75 to 99	> 50	75 to 99	25 to 50	–
CN(C)c1ccc(C(=O)Nc2ccc(-c3nc4ccc([N+](=O)[O-])cc4n3O)cc2)cn1 [Y]	75 to 99	10 to 25	< 75	10 to 25	–
CN(C)c1ccc(/C=C/C(=O)Nc2ccc(-c3nc4ccc([N+](=O)[O-])cc4n3O)cc2)cn1 [Z]	75 to 99	> 50	75 to 99	> 50	–
